Molecules are shown by their SMILES. “Also recorded” adds a separate entry of the source.

We go through four compounds from patent US9783550B2, “Highly potent inhibitors of porcupine” (The Board of Regents of the University of Texas System, priority 2013, dated 2017).

The test system of data set [1] is Wnt mediated branching morphogenesis in cultured embryonic kidneys. Particulars: cultured mouse embryonic kidneys; cited from earlier work.
For data set [2], the system named is regeneration of the tailfin (Wnt-dependent process). Particulars: adult and juvenile fish, previously shown; cited from earlier work.
Data set [3] in a line: Relative solubility. The class given is physicochemical.
The test system of data set [4] is posterior axis formation (Wnt/β-catenin dependent developmental process). As to the kind of experiment: Zebrafish posterior axis formation assay. The class given is in vivo. The settings on record: zebrafish embryos, low micromolar concentrations, FIG. 7. The procedure:
Zebrafish embryos harboring a mCherry-based reporter of Wnt/β-catenin signaling (Moro, et al., 2012) were treated with increasing concentrations of IWP-L6 (FIG. 3 Compound 27) in the aquarium water. Fluorescence intensity of animals was quantified as before (Dodge et al., 2012). (FIG. 7B) Activity of the IWP compounds IWP-L6 (Compound 27), 30, 32, and 35 was measured using the posterior axis formation assay.

Data set [5] deals with Wnt mediated branching morphogenesis in cultured embryonic kidneys. As to the kind of experiment: Branching morphogenesis in cultured mouse embryonic kidneys. The data set is classed as cell-based. The procedure:
FIGS. 8A-B—(FIG. 8A) IWP-L6 (Compound 27) inhibits Wnt mediated branching morphogenesis in cultured embryonic kidneys. Hoxb7Cre; RosaTomato kidneys were dissected from E11.5 embryos and cultured at the air/media interface (Dodge, et al., 2012; Kamer, et al., 2010) Media was replaced every 24 hours. Images were captured every 24 hours using a Zeiss Lumar V12 fluorescent stereoscope. Magnitude: 80× at 0 hours and 24 hours; 60× at 48 hours. (FIG. 8B) The fold increase in the number of ureteric bud tips between time=0 and 48 hours for each treatment was quantified. Statistics were performed using Student T-test.
IWP2 (2) has been previously shown to specifically and reversibly block Wnt signaling and Wnt mediated branching morphogenesis in cultured mouse embryonic kidneys (Kamer, et al., 2010; Dodge, et al., 2012, which are incorporated by reference herein). […] Embryonic day (E) 11.5 kidneys in media containing various doses (1 nM to 1 μM) of IWP-L6 (27) were cultured. […] In comparison, a dose of 5 μM of IWP-2 (2) was required to obtain similar results (Dodge, et al., 2012; Karner, et al., 2010).

Data set [6] is described as follows: S9 metabolism assay, murine liver S9 fractions. The class given is in vitro ADME, mouse. Particulars: 2 μM, 37° C., NADPH-regenerating system. The procedure:
S9 Metabolism Assay: Male ICR/CD-1 mouse S9 fractions were purchased from Celsis/In Vitro Technologies (Baltimore, Md.). 50 μL (1 mg) of S9 protein was added to a 15 mL glass screw cap tube. 700 μL of a 50 mM Tris, pH 7.5 solution, containing the compound of interest was added on ice. The final concentration of compound after addition of all reagents was 2 μM. 250 μL of an NADPH-regenerating system (1.7 mg/mL NADP, 7.8 mg/mL glucose-6-phosphate, 6 U/mL glucose-6-phosphate dehydrogenase in 2% w/v NaHCO3/10 mM MgCl2) was added and the tube placed in a 37° C. shaking water bath. At varying time points after addition of phase I cofactors, the reaction was stopped by the addition of 1 mL of methanol containing an internal standard compound, n-benzylbenzamide, and formic acid. The samples were incubated 10 min at room temperature and then spun once at 975×g in the glass tube. The supernatant was spun a second time at 16,000×g for 5 min in a microcentrifuge. The supernatant was analyzed by LC-MS/MS. Analytical methods were developed for each compound using an AB SCIEX 3200-QTrap, a combination triple quadrupole/ion trap instrument. Compound transitions utilized for quantitation were as follows: IWP-L6 (27): 473.2 to 303.1; aniline: 171.2 to 127.0; n-benzylbenzamide (internal standard): 212.1 to 91.1. […]

The subject of data set [7] is cell-autonomous Wnt signaling in mouse fibroblasts (L cells). As to the kind of experiment: Wnt signaling / Porcn-inhibiting activity, EC50 in mouse fibroblasts (L cells). The data set is classed as cell-based. The source says:
The four IWP lead compounds (1-4) were identified in the initial screen of 200,000 compounds (ChemDiv, ChemBridge, ComGenex, Prestwick and TimTek libraries) bear similar molecular skeletons (FIG. 1). […] The phthalazinone moiety of IWP-1 (1) and pyrimidinone moiety of IWP-2-4 (2-4) can be considered to be exchangeable scaffolding motifs for the compounds. The benzothiazole moiety appears to be a conserved motif and the phenyl group tolerates both electronic and steric perturbations.
While there is only 69% sequence identity between mouse Porcn and zebrafish Porcn, the in vitro EC50 values (FIG. 3) measured in mouse fibroblasts (L cells) correlate with the in vivo activity observed in fish but not linearly.

For data set [8], the system named is regeneration of the tailfin (Wnt-dependent process). Description: Zebrafish tailfin regeneration. The data set is classed as in vivo. The source says:
Achieving transient repression of pathological Wnt response without incurring permanent damage to normal stem cell function is a key anticancer therapeutic goal.

The nature of data set [9]: Plasma metabolism assay, human plasma. The settings on record: over 24 h; 2 μM, 37° C. The data set is classed as in vitro ADME. The procedure: (§1) Plasma Metabolism Assay: Murine, rat, and human plasma, collected using acidified citrate dextrose (ACD) anticoagulant, were purchased from Bioreclamation (Westbury, N.Y.). IWP-L6 (27) was added to 1 mL of each plasma at a final concentration of 2 μM, the material was aliquoted into eppendorf tubes, and then incubated for the indicated time points in a 37° C. water bath. At each time point, an aliquot was removed and protein precipitated and compound extracted and analyzed as described above.

Data set [10] concerns phosphorylation of dishevelled 2 (Dv12) in HEK293 cells. As to the kind of experiment: Phosphorylation of dishevelled 2 in HEK293 cells (gel electrophoresis). The data set is classed as cell-based. The source says: FIG. 4—The Porcn inhibitor, IWP-L6 (FIG. 3 Compound 27), blocks the phosphorylation of the cytoplasmic Wnt pathway effector Dv12 shown through gel electrophoresis.
Among the five newly identified sub-nanomolar IWPs, compound 27 was selected for further biological evaluations and named IWP-L6. […] The in vivo stability of IWP-L6 (27) (FIG. 5) was further profiled. […] The major metabolites are the amide cleavage products. Similar species-dependent metabolitic profiles due to the involvement of carboxylesterase (CES) have been reported with other drug candidates (Eng, et al., 2010; Liu, et al., 2011) These observations are consistent with the elevated activity of CES in mouse and rat but not human (Berry, et al., 2009; Rudakova, et al., 2011; Bahar, et al., 2012).

Data set [11] can be described thus: Plasma metabolism assay, rat plasma. The class given is in vitro ADME. The procedure: as §1
Data set [12] in a line: Plasma metabolism assay, murine plasma. The class given is in vitro ADME, mouse. The procedure: as §1

In the case of `Cc1ccc2nc(NC(=O)CSc3nc4c(c(=O)n3-c3ccccc3)SCC4)sc2c1` [IWP-2], the “dose required to obtain similar results (block of branching morphogenesis)” value in data set [1] was 5 µM.

Regarding `O=C(Nc1cccc2cccnc12)c1ccc(N2C(=O)[C@@H]3[C@H](C2=O)[C@@H]2C=C[C@H]3C2)cc1` [IWR-1], in data set [2], the “block of tailfin regeneration” value is reported as “effectively block”.

As for `O=C(CSc1nc2c(c(=O)n1-c1ccccc1)SCC2)Nc1ccc(-c2ccccc2)cn1` [IWP-L6], the “solubility relative to IWP-2 (2) and 20” value in data set [3] is reported as “more soluble”. Moreover, the “inhibition of posterior axis formation” value in [4] is “effectively inhibit; also recorded: inhibits”. Moreover, the “dose that completely blocked branching morphogenesis” value in data set [5] (E11.5 kidneys) is not below 50 nM. The “dose that significantly reduced branching morphogenesis” value in data set [5] (E11.5 kidneys, relative to DMSO treated controls) is not below 10 nM. Besides, in data set [5] (FIG. 8A), the “inhibition of Wnt mediated branching morphogenesis (in words)” value is “inhibits”. In addition, the “potency relative to IWP-2 (2)” value in data set [5] (cultured E11.5 mouse kidneys) is reported as “at least 100 times”. Moreover, the “t1/2 in murine liver S9 fractions” value in data set [6] was 26 min. For the same compound, the “EC50 (in words)” value in data set [7] was “sub-nanomolar”. In [7] (general structure C, FIG. 3 series), the “Porcn-inhibiting activity (in words)” value is listed as “slight improvement of activity”. Moreover, the “fin regeneration after chemical removal” value in [8] (resected caudal fins, 7 d in water containing compound, then removal) is on record as “nearly normal levels”. Besides, in data set [8] (zebrafish, FIG. 6), the “inhibition of tailfin regeneration (comparison in words)” value was “more potent activity; also recorded: more significant”. Moreover, in [9], the “stability in human plasma” value is “stable; also recorded: little degradation”. Besides, in [10], the “suppression of phosphorylation of dishevelled 2 (Dv12)” value is reported as “effectively suppressed; also recorded: blocks”. The “t1/2 in rat plasma” value in data set [11] (2 μM, 37° C.) was 190 min. Further, the “degradation in rat plasma (in words)” value in [11] (as a function of time, FIG. 5) is recorded as “much more significant degradation”. In addition, in [12] (2 μM, 37° C.), the “t1/2 in murine plasma” value worked out at 2 min. The “degradation in mouse plasma (in words)” value in [12] (as a function of time, FIG. 5) is “much more significant degradation”.

`Cc1ccc2nc(NC(=O)CSc3nc4c(c(=O)n3C)SC(C)C4)sc2c1` (centres unmarked) [IWP-12]: the “block of tailfin regeneration” value in [2] is “effectively block”.
